Several values for one entry are separate records, joined by “and”; a condition that tells them apart may be missing. Equal entries are not always repeated. Inconclusive results and toxic doses are left out. Rule for the calls: active = survival T/C of 150% or more; inactive = T/C below 125% in these data.
System: P388 leukemia ip, CD2F1 mice, survival T/C
Test: NCI In Vivo Anticancer Drug Screen. Data for tumor model P388 Leukemia (intraperitoneal) in CD2F1 (CDF1) mice
Conditions: endpoint: median survival time, higher = longer survival
Method in brief: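 Mice carrying the transplanted tumor received test compound or vehicle. Survival was recorded in each group, and the value is the treated-group measurement divided by that of the vehicle-treated control group.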

[1] = dose: 100.0 mg/kg/injection, schedule: Q01DX009 (ip), vehicle: saline with Tween-80
[2] = dose: 200.0 mg/kg/injection, schedule: Q01DX009 (ip), vehicle: saline with Tween-80
[3] = dose: 50.0 mg/kg/injection, schedule: Q01DX005 (ip), vehicle: saline with Tween-80
[4] = dose: 50.0 mg/kg/injection, schedule: Q01DX005 (ip), vehicle: Klucel (hydroxypropylcellulose) (HPC)
[5] = dose: 100.0 mg/kg/injection, schedule: Q01DX005 (ip), vehicle: Klucel (hydroxypropylcellulose) (HPC)
[6] = dose: 200.0 mg/kg/injection, schedule: Q01DX005 (ip), vehicle: Klucel (hydroxypropylcellulose) (HPC)

Measured: T/C

O=[N+]([O-])C1(Br)COC(c2cccc(O)c2)OC1 (centres undefined)
inactive: dose: 3.12 mg/kg/injection, schedule: Q01DX009 (ip), vehicle: saline with Tween-80 99 % of control | dose: 6.25 mg/kg/injection, schedule: Q01DX009 (ip), vehicle: saline with Tween-80 97 % of control | dose: 12.5 mg/kg/injection, schedule: Q01DX009 (ip), vehicle: saline with Tween-80 111 % of control and 94 % of control

NNP(=O)(NN)C(Cl)(Cl)Cl
inactive: dose: 15.0 mg/kg/injection, schedule: Q01DX005 (ip), vehicle: saline 101 % of control | dose: 30.0 mg/kg/injection, schedule: Q01DX005 (ip), vehicle: saline 100 % of control | dose: 60.0 mg/kg/injection, schedule: Q01DX005 (ip), vehicle: saline 108 % of control and 114 % of control

CO/C=C1\SC(=S)N(c2ccc(NC(C)=O)cc2)C1=O
inactive: dose: 50.0 mg/kg/injection, schedule: Q01DX009 (ip), vehicle: saline with Tween-80 93 % of control | [1] 92 % of control | [2] 96 % of control

O=C(Nc1ccc(NC(=O)c2ccc(C3=NCCCN3)cc2)cc1)Nc1ccc(C2=NCCCN2)cc1
inactive: dose: 10.0 mg/kg/injection, schedule: Q01DX009 (ip), vehicle: saline 113 % of control
active: dose: 10.0 mg/kg/injection, schedule: Q01DX009 (ip), vehicle: saline with Tween-80 163 % of control | dose: 20.0 mg/kg/injection, schedule: Q01DX009 (ip), vehicle: saline 159 % of control

Cc1csc(N)n1
inactive: dose: 100.0 mg/kg/injection, schedule: Q04DX002 (ip), vehicle: saline 97 % of control | dose: 200.0 mg/kg/injection, schedule: Q04DX002 (ip), vehicle: saline 95 % of control | dose: 400.0 mg/kg/injection, schedule: Q04DX002 (ip), vehicle: saline 101 % of control

CC(C)(C)/C=C/N1CCN=N1
inactive: dose: 12.5 mg/kg/injection, schedule: Q01DX005 (ip), vehicle: saline with Tween-80 100 % of control | dose: 25.0 mg/kg/injection, schedule: Q01DX005 (ip), vehicle: saline with Tween-80 104 % of control | [3] 102 % of control and 109 % of control

OCC(O)C(O)C(O)c1nn(-c2ccccc2)c2nc3ccc(Cl)cc3nc12 (centres undefined)
inactive: [4] 90 % of control | [5] 90 % of control | [6] 89 % of control

COCCCOC(=O)Oc1ccc(CC(N)C(=O)O)cc1 (centres undefined)
inactive: [4] 99 % of control | [5] 99 % of control | [6] 96 % of control

O=c1[nH]c2ccccc2c2cc3ccccc3cc12
inactive: dose: 6.25 mg/kg/injection, schedule: Q01DX009 (ip), vehicle: saline 94 % of control | dose: 12.5 mg/kg/injection, schedule: Q01DX009 (ip), vehicle: saline 86 % of control | dose: 25.0 mg/kg/injection, schedule: Q01DX009 (ip), vehicle: saline 99 % of control | dose: 50.0 mg/kg/injection, schedule: Q01DX009 (ip), vehicle: saline 96 % of control | [1] 89 % of control | [2] 89 % of control | dose: 400.0 mg/kg/injection, schedule: Q01DX009 (ip), vehicle: saline with Tween-80 89 % of control

c1ccc2c(c1)Cc1ccccc1N2CCN1CCCCC1
inactive: dose: 50.0 mg/kg/injection, schedule: Q01DX005 (ip), vehicle: saline 101 % of control | dose: 100.0 mg/kg/injection, schedule: Q01DX005 (ip), vehicle: saline 104 % of control

O=C1CCCCCC1c1ccccc1 (centres undefined)
inactive: dose: 100.0 mg/kg/injection, schedule: Q04DX003 (ip), vehicle: saline with Tween-80 104 % of control | dose: 200.0 mg/kg/injection, schedule: Q04DX003 (ip), vehicle: saline with Tween-80 104 % of control | dose: 400.0 mg/kg/injection, schedule: Q04DX003 (ip), vehicle: saline with Tween-80 109 % of control

Cc1c([N+](=O)[O-])c(=O)oc2ccc3c(=O)ccoc3c12
inactive: [3] 98 % of control | dose: 100.0 mg/kg/injection, schedule: Q01DX005 (ip), vehicle: saline with Tween-80 96 % of control | dose: 200.0 mg/kg/injection, schedule: Q01DX005 (ip), vehicle: saline with Tween-80 99 % of control
